From PubChem BioAssay AID624409 (The Scripps Research Institute Molecular Screening Center, 2012)
Activity calls are given as the source filed them.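 How the source made its calls: active means IC50 at or below 10 µM; inactive means IC50 above 10 µM.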

Each compound was assayed against Orexin/Hypocretin receptor type 1 (Homo sapiens) (UniProt O43613) (assay: OX1R antagonist potency, calcium flux, late-stage follow-up, fluorescence, Fluo-8, CHO cells, powder samples (AID 624409)). Settings: Fluo-8 calcium fluorescence, orexin A.
Chain of Orexin/Hypocretin receptor type 1 (Homo sapiens) (O43613 whole entry, looked up): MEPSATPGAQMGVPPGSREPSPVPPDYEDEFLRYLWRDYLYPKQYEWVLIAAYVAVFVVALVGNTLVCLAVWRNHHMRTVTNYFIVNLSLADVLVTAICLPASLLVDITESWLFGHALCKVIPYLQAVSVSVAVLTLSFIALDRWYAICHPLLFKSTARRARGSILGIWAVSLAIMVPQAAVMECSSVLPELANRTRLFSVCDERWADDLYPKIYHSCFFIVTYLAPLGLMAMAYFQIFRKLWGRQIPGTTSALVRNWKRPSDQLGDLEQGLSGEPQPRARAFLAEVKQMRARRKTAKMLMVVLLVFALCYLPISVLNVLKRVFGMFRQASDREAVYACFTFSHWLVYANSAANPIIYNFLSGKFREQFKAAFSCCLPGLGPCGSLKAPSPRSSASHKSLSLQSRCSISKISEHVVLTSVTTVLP

IC50 | Compound
2.67 µM | Cc1cccc(C=NNC(=O)c2cc3c(s2)-c2ccccc2CC3)c1
1.38 µM | Cc1cc(Cl)ccc1OCCCC(=O)NCCN1C(=O)S/C(=C\c2cccnc2)C1=O
inactive | COCCCNC(=O)CCC(=O)NNc1nc2ccccc2c2nc(-c3ccccc3)nn12
> 19.9 µM (inactive) | Cc1cccc(NC(=O)[C@@H]2CCCN2S(=O)(=O)c2ccc(Cl)cc2)c1
> 19.9 µM (inactive) | O=c1cc(CN2CC(O)Cc3ccc4ccccc4c32)nc2sccn12 (stereo unspecified)
> 19.9 µM (inactive) | CSc1cccc(N2CC(C(=O)NCCN3C(=O)S/C(=C\c4cccnc4)C3=O)CC2=O)c1 (stereo unspecified)
4.67 µM | CSc1cccc(NC(=O)C2CCCN2S(=O)(=O)c2ccc(Br)s2)c1 (stereo unspecified)
> 59.6 µM (inactive) | CN(N=Cc1cc([N+](=O)[O-])ccc1O)c1ccccc1
> 59.6 µM (inactive) | CCOC(=O)N1CCN(C(=O)CSc2ccc(-c3ccccc3)nn2)CC1
> 19.9 µM (inactive) | Cc1noc(C)c1COc1ccc(C(=O)OCC(=O)N2CC(=O)Nc3ccccc32)cc1
> 19.9 µM (inactive) | Cc1ccccc1NC(=O)C1CCCN1S(=O)(=O)c1ccccc1C(F)(F)F (stereo unspecified)
7.12 µM | COc1ccc(OC)c(S(=O)(=O)NCC(c2ccco2)N2CCc3ccccc32)c1 (stereo unspecified)
inactive | Cc1c(NS(=O)(=O)c2cccc(C(=O)OCC(=O)N(C)C3CCCCC3)c2)c(=O)n(-c2ccccc2)n1C
> 59.6 µM (inactive) | Fc1cccc(Nc2nc3ccccc3n3cnnc23)c1
3.8 µM | COc1cccc(/C=C2/Oc3ccccc3N(CC(=O)NCC3CCCO3)C2=O)c1 (stereo unspecified)
inactive | CCOc1ccccc1C(=O)Nc1ccc2nc3n(c(=O)c2c1)CCCCC3
inactive | CCc1cc(C(=O)OCC(=O)N2CCC(c3ccccc3)=N2)sc1C
4.97 µM | CCSC1=C(C#N)C(c2ccccc2Cl)C(C(=O)c2cccs2)C(O)(C(F)(F)F)N1 (stereo unspecified)
> 59.6 µM (inactive) | CCc1cc2c(SCC(=O)N(CC)c3c(N)n(Cc4ccccc4)c(=O)[nH]c3=O)ncnc2s1
inactive | COc1cc(OC)c(-c2nc3ccccc3s2)cc1OC
> 59.6 µM (inactive) | CCN(CC)c1ccc(NC(=O)Cn2c(C(C)NC(=O)c3ccccc3)nc3ccccc32)cc1 (stereo unspecified)
7.92 µM | O=C(CSc1ccc(-c2ccccc2)nn1)c1cccs1
5.01 µM | O=C(CN1C(=O)/C(=C\c2cccc(Br)c2)Oc2ccccc21)NCC1CCCO1 (stereo unspecified)
inactive | Cc1ccc(-c2csc3nnc(SCC(=O)Nc4nsc(-c5ccccc5)n4)n23)cc1
inactive | CCn1c(SCC(=O)Nc2ccc3c(c2)c2ccccc2n3CC)nnc1-c1cnccn1
9.14 µM | CC(=C/c1ccccc1)/C=C1/SC(N2CCOCC2)=NC1=O
